Assay results from publication PMC5078989, “Targeted inhibition of the COP9 signalosome for treatment of cancer” (Nature Communications, 2016).

Tested on: panel of cancer cell lines
Experiment: Cell viability (CellTiter-Glo) dose-response across cancer cell line panel;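 as to EC50: after 72 h compound incubation with CellTiter-Glo ATP readout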
Type: cell-based, human
Conditions: for EC50: Homo sapiens
Description: Next, we explored the effect of CSN5 inhibition on the viability of cancer cells. To obtain a comprehensive picture, we generated dose–response curves with a CSN5 inhibitor across more than 500 cancer cell lines in a previously described standardized setting[47] (Supplementary Data 1).
A standardized CellTiter-Glo Assay (Promega #G7570) based on the quantification of ATP was applied according to the manufacturer's protocol to measure the amount of viable cells in culture. In brief, cells were seeded into 384-well plates at optimal density for each cell line. After 4 h, compounds were added at different concentrations in growth medium and incubated for another 72 h in a humidifying chamber at 37 °C and 5% CO2. […] EC50 values were calculated from the plot of percentage of inhibition versus inhibitor concentration using the nonlinear regression analysis software Origin 7.5SR6 (OriginLab Corp.).

- EC50 (SNU-685 cells): > 30 µM
- EC50 (SNU-738 cells): 14.6 µM
- EC50 (SNU-761 cells): 11.3 µM
- EC50 (SNU-1040 cells): 18.9 µM
- EC50 (SNU-1079 cells): 13.1 µM
- EC50 (SNU-C1, SNU-C1 cells): 17.8 µM
- EC50 (SNU-C2A cells): 10.7 µM
- EC50 (SNU-C4, SNU-C4 cells): 13.7 µM
- EC50 (SNU-C5 cells): 8.36 µM
- EC50 (SR-786, SR-786 cells): 11.4 µM
- EC50 (SU-DHL10, SU-DHL-10 cells): 5.76 µM
- EC50 (SU-DHL-4, SU-DHL-4 cells): 10.9 µM
- EC50 (SU-DHL-5, SU-DHL-5 cells): 4.35 µM
- EC50 (SU-DHL-6, SU-DHL-6 cells): 6.01 µM
- EC50 (SU-DHL-8, SU-DHL-8 cells): 6.55 µM
- EC50 (SU.86.86, SU.86.86 cells): 10.8 µM
- EC50 (SUM44PE cells): 26.1 µM
- EC50 (SUM52PE, SUM52PE cells): 3.38 µM
- EC50 (SUM149PT, SUM149PT cells): 10.6 µM
- EC50 (SUM-159-PT, SUM159PT cells): 11.1 µM
- EC50 (SUP-T1, SUP-T1 cells): 10.1 µM
- EC50 (SW48, SW48 cells): 12.2 µM
- EC50 (SW480, SW480 cells): 9.61 µM
- EC50 (SW982, SW982 cells): 11.4 µM
- EC50 (SW1088, SW 1088 cells): 10.6 µM
- EC50 (SW1271, SW 1271 cells): 18.7 µM
- EC50 (SW1573, SW 1573 cells): 9.37 µM
- EC50 (SW1783, SW 1783 cells): > 30 µM
- EC50 (SW-403, SW403 cells): 23.8 µM
- EC50 (SW-620, SW620 cells): 21.8 µM
- EC50 (SYO-1 cells): 11.2 µM
- EC50 (Sq-1 cells): 11.8 µM
- EC50 (T3M4, T3M-4 cells): 18.8 µM
- EC50 (T47D, T-47D cells): 7.39 µM
- EC50 (TANOUE cells): 6.4 µM
- EC50 (TC-71, TC-71 cells): 9.61 µM
- EC50 (TCC-PAN2 cells): 28.9 µM
- EC50 (TE-6, TE-6 cells): 14 µM
- EC50 (TE-11, TE-11 cells): 10.7 µM
- EC50 (TE-15, TE-15 cells): 15.1 µM
- EC50 (TF-1, TF-1 cells): 8.75 µM
- EC50 (THP-1, THP-1 cells): 5.46 µM
- EC50 (TYK-nu cells): 10.6 µM
- EC50 (U266B1 cells): 9.53 µM
- EC50 (U-118-MG, U-118 MG cells): 25.3 µM
- EC50 (U-937, U-937 cells): 7.39 µM
- EC50 (UACC-62, UACC-62 cells): 13.9 µM
- EC50 (UACC-257, UACC-257 cells): 11.2 µM
- EC50 (UCH1, UCH-1 cells): 14.7 µM
- EC50 (UKE1, UKE1 cells): 9.11 µM
- EC50 (VM-CUB-1, VM-CUB1 cells): 4.45 µM
- EC50 (VMRC-LCD cells): 11 µM
- EC50 (VMRC-RCW cells): 11.9 µM
- EC50 (WM 266-4, WM-266-4 cells): 17.1 µM
- EC50 (WM983B, WM-983B cells): 9.66 µM
- EC50 (WM-88 cells): 13.6 µM
- EC50 (WM-115, WM-115 cells): 7.37 µM
- EC50 (WSU-WM cells): 7.7 µM
- EC50 (YAPC, YAPC cells): 11.5 µM
SMILES: COCc1ccccc1NCc1ccc([C@@H]2[C@H](O)CCCc3cncn32)c(-c2ccccc2Cl)c1 [CSN5i-2e, (5R,6R)-5-(2′-chloro-5-(((2-(methoxymethyl)phenyl)amino)methyl)-[1,1′-biphenyl]-2-yl)-6,7,8,9-tetrahydro-5H-imidazo[1,5-a]azepin-6-ol]
- AMAX (Hs 695T cells): -86.8488
- AMAX (Hs 936.T cells): -93.4541
- AMAX (HuG1-N cells): -87.0263
- AMAX (HuH-7 cells): -97.6516
- AMAX (IGR-37 cells): -77.0355
- AMAX (IGROV1 cells): -71.2355
- AMAX (IPC-298 cells): -72.365
- AMAX (Ishikawa cells): -88.4272
- AMAX (J82 cells): -35.798
- AMAX (JHH-4 cells): -90.0924
- AMAX (JHOS-2 cells): -45.7705
- AMAX (JHUEM-2 cells): -96.4199
- AMAX (JHUEM-3 cells): -54.8666
- AMAX (JL-1 cells): -68.6834
- AMAX (JVM-2 cells): -97.127
- AMAX (KARPAS-422 cells): -93.641
- AMAX (KATO III cells): -77.3764
- AMAX (KBM-7 cells): -97.1328
- AMAX (KE-97 cells): -93.3813
- AMAX (KMRC-1 cells): -75.0974
- AMAX (KP-1N cells): -76.285
- AMAX (KP-2 cells): -93.6503
- AMAX (KP-3 cells): -72.8527
- AMAX (KU-19-19 cells): -88.0441
- AMAX (KYSE-150 cells): -68.4693
- AMAX (KYSE-180 cells): -91.1186
- AMAX (Kasumi3 cells): -95.9336
- AMAX (L-363 cells): -92.1173
- AMAX (LC2/ad cells): -70.6199
- AMAX (LCLC-103H cells): -71.5681
- AMAX (MFE-280 cells): -75.2715
- AMAX (MM138 cells): -91.9111
- AMAX (MM415 cells): -83.1051
- AMAX (MM426 cells): -57.5258
- AMAX (MM485 cells): -82.1717
- AMAX (MM537 cells): -84.9338
- AMAX (MOLT-16 cells): -96.4687
- AMAX (MeWo cells): -73.0371
- AMAX (NB-1 cells): -97.6901
- AMAX (NCI-H82 cells): -96.2323
- AMAX (NCI-H146 cells): -95.028
- AMAX (NCI-H322 cells): -82.8728
- AMAX (NCI-H441 cells): -78.9188
- AMAX (NCI-H810 cells): -2.884
- AMAX (NCI-H841 cells): -94.3751
- AMAX (NCI-H1373 cells): -93.5484
- AMAX (NCI-H1568 cells): -98.9282
- AMAX (NCI-H1755 cells): -88.1389
- AMAX (NCI-H2023 cells): -87.7102
- AMAX (NCI-H2087 cells): -85.0078
- AMAX (NCI-H2452 cells): -48.2134
- AMAX (ONCO-DG-1 cells): -95.499
- AMAX (OUMS-23 cells): -91.7164
- AMAX (OV56 cells): -92.0115
- AMAX (P3HR-1 cells): -92.6521
- AMAX (P12-ICHIKAWA cells): -96.1728
- AMAX (PA-TU-8988T cells): -59.6796
- AMAX (PANC-1 cells): -78.7196
- AMAX (PC-3 cells): -66.4355
- AMAX (PE/CA-PJ49 cells): -89.0883
- AMAX (PF-382 cells): -96.9256
- AMAX (Panc 03.27 cells): -56.1495
- AMAX (Panc 04.03 cells): -74.9732
- AMAX (Panc 10.05 cells): -81.9961
- AMAX (RD-ES cells): -95.6768
- AMAX (RT-112 cells): -70.4236
- AMAX (SEM cells): -91.5844
- AMAX (SF-268 cells): -46.326
- AMAX (SK-ES-1 cells): -87.9534
- AMAX (SK-MEL-3 cells): -63.3656
